The record followed here is patent US20100267706A1, “Compounds, Compositions and Methods Comprising Pyridazine Derivatives” (Institute for OneWorld Health, priority 2009, published 2010).

In one experiment the target is T1, CFTR (Homo sapiens, UniProt P13569).
T1 construct: host or cells: Human colonic T84 cells
T1 sequence (P13569 whole entry): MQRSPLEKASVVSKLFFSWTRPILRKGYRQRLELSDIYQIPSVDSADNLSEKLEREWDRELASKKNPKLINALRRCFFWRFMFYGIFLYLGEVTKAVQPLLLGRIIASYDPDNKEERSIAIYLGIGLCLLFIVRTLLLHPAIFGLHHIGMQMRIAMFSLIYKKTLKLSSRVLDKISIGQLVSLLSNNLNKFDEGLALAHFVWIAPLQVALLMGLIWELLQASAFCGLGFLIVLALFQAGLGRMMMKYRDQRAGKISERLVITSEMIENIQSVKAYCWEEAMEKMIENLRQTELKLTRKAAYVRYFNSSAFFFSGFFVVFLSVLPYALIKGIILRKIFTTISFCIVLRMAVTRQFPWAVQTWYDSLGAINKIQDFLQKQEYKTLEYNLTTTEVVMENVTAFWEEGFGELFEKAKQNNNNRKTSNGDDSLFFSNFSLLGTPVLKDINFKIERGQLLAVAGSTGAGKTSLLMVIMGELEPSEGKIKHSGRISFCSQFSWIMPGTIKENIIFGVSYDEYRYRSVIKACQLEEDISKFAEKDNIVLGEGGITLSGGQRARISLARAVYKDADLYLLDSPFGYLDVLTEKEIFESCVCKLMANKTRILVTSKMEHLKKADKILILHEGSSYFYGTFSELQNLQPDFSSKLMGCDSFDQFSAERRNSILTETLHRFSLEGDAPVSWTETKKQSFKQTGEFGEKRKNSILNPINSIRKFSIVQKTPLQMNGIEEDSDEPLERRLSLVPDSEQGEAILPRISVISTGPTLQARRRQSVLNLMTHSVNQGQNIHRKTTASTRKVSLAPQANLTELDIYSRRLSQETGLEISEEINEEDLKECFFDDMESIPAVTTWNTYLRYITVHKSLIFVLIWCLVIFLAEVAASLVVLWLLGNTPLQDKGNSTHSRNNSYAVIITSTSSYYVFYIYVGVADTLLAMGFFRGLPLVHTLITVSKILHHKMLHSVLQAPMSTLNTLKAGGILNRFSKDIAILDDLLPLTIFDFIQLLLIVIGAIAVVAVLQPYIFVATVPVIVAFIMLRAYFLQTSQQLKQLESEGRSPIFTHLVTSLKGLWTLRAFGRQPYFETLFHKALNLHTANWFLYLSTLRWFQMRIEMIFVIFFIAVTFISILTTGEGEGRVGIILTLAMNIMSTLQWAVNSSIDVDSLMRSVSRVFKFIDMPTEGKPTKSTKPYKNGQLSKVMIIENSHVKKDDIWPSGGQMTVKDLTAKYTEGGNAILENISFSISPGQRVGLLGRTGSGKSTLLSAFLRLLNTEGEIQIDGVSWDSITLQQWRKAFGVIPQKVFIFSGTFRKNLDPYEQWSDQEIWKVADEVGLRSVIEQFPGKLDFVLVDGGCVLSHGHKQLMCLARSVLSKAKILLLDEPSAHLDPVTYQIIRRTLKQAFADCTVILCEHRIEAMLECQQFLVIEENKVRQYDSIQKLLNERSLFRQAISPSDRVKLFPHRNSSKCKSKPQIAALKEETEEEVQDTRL
Briefly: T84 assay (FLIPR membrane potential, forskolin/IBMX-stimulated CFTR channel activity). It counts as cell-based. The settings on record: Human colonic T84 cells; average of at least 2 runs unless annotated n = 1. Here is the method: (§1) For example, Human colonic T84 cells can be acquired from the European Collection of Cell Cultures (ECACC) and grown in standard culture conditions as described by the supplier. On the day before assay 25,000 T84 cells per well are plated into standard black walled, clear bottom 384-well assay plates in standard growth medium consisting of DMEM:F12 with 10% FBS and incubated overnight. On the day of the assay the plates are washed using a standard assay buffer (HBSS with 10 mM Hepes) and incubated for 15 minutes in serum free cell culture medium before the addition of a commercially available membrane potential sensitive fluorescent dye (FLIPR Red membrane potential dye, Molecular Devices Corporation). T84 cells are incubated with the FLIPR Red membrane potential dye for 45 minutes in the presence and absence of test compound before being transferred to a commercially available fluorescence imaging plate reader (FLIPR384, Molecular Devices Corporation). Fluorescence levels are monitored continuously every second for 150 seconds; after an initial 10 second baseline, CFTR channel activity is stimulated through the addition of 10 μM forskolin in the presence of 100 μM of the phosphodiesterase inhibitor iso-butyl-methylxanthine (IBMX). Addition of the forskolin leads to the activation of intracellular adenylyl cylase 1, elevating cAMP levels and results in the phosphorylation and opening of CFTR anion channels. CFTR channel opening causes chloride ion efflux and subsequent depolarization of the cells, which is measured by an increase in fluorescence. CFTR inhibitor compounds prevent cell depolarization and the associated increase in fluorescence.
as §1, with “Human colonic” for “For example, Human colonic”, “T84 cells are acquired from” for “T84 cells can be acquired from”, “(ECACC) and are grown in” for “(ECACC) and grown in”
In turn, `O=C(c1cc(-c2cc(Cl)c(O)c(Cl)c2)nnc1OCCc1ccc(Cl)cc1)N(CCO)Cc1ccccc1` [Compound 11, N-benzyl-3-(4-chlorophenethoxy)-6-(3,5-dichloro-4-hydroxyphenyl)-N-(2-hydroxyethyl)pyridazine-4-carboxamide] showed an IC50 of 8.26 µM.

`CN(Cc1ccccc1)C(=O)c1cc(-c2cc(Cl)c(O)c(Cl)c2)nnc1OCCc1ccc(Cl)cc1` [Compound 28, N-benzyl-3-(4-chlorophenethoxy)-6-(3,5-dichloro-4-hydroxyphenyl)-N-methylpyridazine-4-carboxamide] had an IC50 of 10.2 µM.

Turning to `O=C(NCc1cccc(C(F)(F)F)c1)c1cc(-c2cc(Cl)c(O)c(Cl)c2)nnc1OCCc1ccc(Cl)cc1` [Compound 6, 3-(4-chlorophenethoxy)-6-(3,5-dichloro-4-hydroxyphenyl)-N-(3-(trifluoromethyl)benzyl)pyridazine-4-carboxamide], half-maximal inhibition (IC50) was put at 24.7 µM.

Turning to `Oc1c(Cl)cc(-c2cc(N3CCN(Cc4cccc(C(F)(F)F)c4)CC3)c(OCCc3ccc(Cl)cc3)nn2)cc1Cl` [Compound 1, 2,6-dichloro-4-(6-(4-chlorophenethoxy)-5-(4-(3-(trifluoromethyl)benzyl)piperazin-1-yl)pyridazin-3-yl)phenol], inhibition was half-maximal at 27 µM (IC50). The IC50 values of the last two molecules are within 1.5-fold of each other.

Consider `O=C(c1cc(-c2cc(Cl)c(O)c(Cl)c2)nnc1OCCc1ccc(Cl)cc1)N(CCO)Cc1ccc(Cl)c(Cl)c1` [Compound 30, 3-(4-chlorophenethoxy)-6-(3,5-dichloro-4-hydroxyphenyl)-N-(3,4-dichlorobenzyl)-N-(2-hydroxyethyl)pyridazine-4-carboxamide], for which the IC50 was found to be 19 µM.

As for `COCCN(Cc1ccccc1)C(=O)c1cc(-c2cc(Cl)c(O)c(Cl)c2)nnc1OCCc1ccc(Cl)cc1` [Compound 29, N-benzyl-3-(4-chlorophenethoxy)-6-(3,5-dichloro-4-hydroxyphenyl)-N-(2-methoxyethyl)pyridazine-4-carboxamide], the IC50 is 8.5 µM.

Take `O=C(c1cc(-c2cc(Cl)c(O)c(Cl)c2)nnc1OCCc1ccc(Cl)cc1)N(Cc1ccccc1)CC(F)(F)F` [Compound 26, N-benzyl-3-(4-chlorophenethoxy)-6-(3,5-dichloro-4-hydroxyphenyl)-N-(2,2,2-trifluoroethyl)pyridazine-4-carboxamide]: 23.5 µM corresponded to half-maximal inhibition (IC50).

For the molecule `O=C(NCc1cc(F)cc(F)c1)c1cc(-c2cc(Cl)c(O)c(Cl)c2)nnc1OCCc1ccc(Cl)cc1` [Compound 8, 3-(4-chlorophenethoxy)-6-(3,5-dichloro-4-hydroxyphenyl)-N-(3,5-difluorobenzyl)pyridazine-4-carboxamide], it took 13 µM to reach half-maximal inhibition (IC50).

The molecule `COc1ccc(CN(CCO)C(=O)c2cc(-c3cc(Cl)c(O)c(Cl)c3)nnc2OCCc2ccc(Cl)cc2)cc1` [Compound 31, 3-(4-chlorophenethoxy)-6-(3,5-dichloro-4-hydroxyphenyl)-N-(2-hydroxyethyl)-N-(4-methoxybenzyl)pyridazine-4-carboxamide] yielded an IC50 of 25.2 µM.

With `CCN(Cc1ccccc1)C(=O)c1cc(-c2cc(Cl)c(O)c(Cl)c2)nnc1N(CC)Cc1ccccc1` [Compound 20, N-benzyl-3-(benzyl(ethyl)amino)-6-(3,5-dichloro-4-hydroxyphenyl)-N-ethylpyridazine-4-carboxamide], the IC50 worked out at 12 µM.

The subject of another experiment is cholera toxin (CTX)-induced net fluid secretion in small intestine loops.
Test: not given
Particulars: 4 hours. Type of experiment: in vivo, mice (CD1 strain).
In the case of `O=C(c1cc(-c2cc(Cl)c(O)c(Cl)c2)nnc1OCCc1ccc(Cl)cc1)N(CCO)Cc1ccccc1` [Compound 11, N-benzyl-3-(4-chlorophenethoxy)-6-(3,5-dichloro-4-hydroxyphenyl)-N-(2-hydroxyethyl)pyridazine-4-carboxamide], the “closed loop % inhibition@100 μg” value was found to be 63.2%.
